Assay results from publication PMC12073449, “Development of a Mechanism of Action-Reflective Cell-Based Reporter Gene Assay for Measuring Bioactivities of Therapeutic Glucagon-like Peptide-2 Analogues” (Molecules, 2025).
Ends that are not written are not given here.

System: HEK293-GLP-2R-Luc cells

## HGEGTFSSELATILDALAARDFINWLIATKITDKKKKKK-NH2 [glepaglutide]
Qvalue 1.61 × 10^−6
  log2 (TD/Ctrl) CPEB2: 1.107
  log2 (TD/Ctrl) GPAT3: 1.067
Qvalue 1.62 × 10^−11
  log2 (TD/Ctrl) LBH: 1.387
Qvalue 1.62 × 10^−22
  log2 (TD/Ctrl) CSRNP1: 2.05
Qvalue 1.63 × 10^−11
  log2 (TD/Ctrl) USP36: 1.039
Qvalue 1.71 × 10^−14
  log2 (TD/Ctrl) DNER: 3.018
Qvalue 1.72 × 10^−7
  log2 (TD/Ctrl) LOC102724428: 1.373
  log2 (TD/Ctrl) RELB: 1.9665
Qvalue 1.77 × 10^−4
  log2 (TD/Ctrl) BMF: −1.178
Qvalue 1.77 × 10^−11
  log2 (TD/Ctrl) PBX1: −1.095
Qvalue 1.80 × 10^−7
  log2 (TD/Ctrl) TNFAIP3: 1.227
Qvalue 1.83 × 10^−18
  log2 (TD/Ctrl) SCN9A: −1.8
Qvalue 1.84 × 10^−5
  log2 (TD/Ctrl) INPP5D: −2.417
Qvalue 1.87 × 10^−4
  log2 (TD/Ctrl) ICAM5: 1.744
Qvalue 1.87 × 10^−11
  log2 (TD/Ctrl) ZNF503: −1.2971
Qvalue 1.88 × 10^−5
  log2 (TD/Ctrl) MFSD2A: 1.193
Qvalue 1.89 × 10^−4
  log2 (TD/Ctrl) ADA: 1.023
Qvalue 1.91 × 10^−39
  log2 (TD/Ctrl) SV2C: 6.845
Qvalue 1.93 × 10^−15
  log2 (TD/Ctrl) ELL2: 1.192
Qvalue 1.93 × 10^−23
  log2 (TD/Ctrl) CD44: 2.115
Qvalue 1.97 × 10^−6
  log2 (TD/Ctrl) CYB5D2: −1.056
Qvalue 2.01 × 10^−5
  log2 (TD/Ctrl) DOK3: −1.636
Qvalue 2.01 × 10^−13
  log2 (TD/Ctrl) TFPI2: 2.377
Qvalue 2.02 × 10^−19
  log2 (TD/Ctrl) TUBB2A: 1.401
Qvalue 2.03 × 10^−14
  log2 (TD/Ctrl) SERTAD1: 1.452
Qvalue 2.06 × 10^−4
  log2 (TD/Ctrl) TRIM47: 1.231
Qvalue 2.06 × 10^−17
  log2 (TD/Ctrl) CD68: 2.012
Qvalue 2.07 × 10^−4
  log2 (TD/Ctrl) FRMPD4: −1.078
Qvalue 2.09 × 10^−50
  log2 (TD/Ctrl) ETV4: 3.646
Qvalue 2.12 × 10^−4
  log2 (TD/Ctrl) TUBA4A: 1.633
Qvalue 2.12 × 10^−19
  log2 (TD/Ctrl) SLC6A17: 2.784
Qvalue 2.21 × 10^−5
  log2 (TD/Ctrl) NAV2: 1.102
  log2 (TD/Ctrl) SOX2: −1.189
Qvalue 2.27 × 10^−19
  log2 (TD/Ctrl) IL6R: 1.742
Qvalue 2.28 × 10^−8
  log2 (TD/Ctrl) GPRC5A: 1.328
Qvalue 2.28 × 10^−9
  log2 (TD/Ctrl) SLC25A25: 1.117
Qvalue 2.29 × 10^−9
  log2 (TD/Ctrl) UPP1: 1.296
Qvalue 2.31 × 10^−9
  log2 (TD/Ctrl) OLIG2: 2.054
Qvalue 2.37 × 10^−34
  log2 (TD/Ctrl) TNC: 1.657
Qvalue 2.38 × 10^−8
  log2 (TD/Ctrl) GPR50: 2.002
Qvalue 2.40 × 10^−4
  log2 (TD/Ctrl) CPA4: 5.506
Qvalue 2.42 × 10^−6
  log2 (TD/Ctrl) FAM217B: −1.106
Qvalue 2.50 × 10^−4
  log2 (TD/Ctrl) CCDC9: 1.137
  log2 (TD/Ctrl) PLK3: 1.391
Qvalue 2.51 × 10^−19
  log2 (TD/Ctrl) TCIM: 7.037
Qvalue 2.55 × 10^−11
  log2 (TD/Ctrl) NRP1: −1.191
Qvalue 2.56 × 10^−11
  log2 (TD/Ctrl) EPHA2: 1.303
Qvalue 2.57 × 10^−12
  log2 (TD/Ctrl) DUSP4: 1.926
Qvalue 2.58 × 10^−27
  log2 (TD/Ctrl) MAFF: 3.639
Qvalue 2.58 × 10^−33
  log2 (TD/Ctrl) AMOT: −1.62
Qvalue 2.59 × 10^−23
  log2 (TD/Ctrl) TNFRSF12A: 2.183
Qvalue 2.68 × 10^−12
  log2 (TD/Ctrl) ZFP36: 1.676
Qvalue 2.71 × 10^−4
  log2 (TD/Ctrl) ARL14: 3.565
Qvalue 2.71 × 10^−23
  log2 (TD/Ctrl) JUNB: 2.192
Qvalue 2.74 × 10^−4
  log2 (TD/Ctrl) C1GALT1C1: −1.022
Qvalue 2.76 × 10^−6
  log2 (TD/Ctrl) UBALD2: 1.053
Qvalue 2.82 × 10^−4
  log2 (TD/Ctrl) ZNF33B: −1.021
Qvalue 2.87 × 10^−4
  log2 (TD/Ctrl) YPEL4: 2.621
Qvalue 2.87 × 10^−7
  log2 (TD/Ctrl) WNT5A: −1.332
Qvalue 2.88 × 10^−7
  log2 (TD/Ctrl) FLNC: 1.243
Qvalue 2.91 × 10^−8
  log2 (TD/Ctrl) NFIL3: 1.177
Qvalue 2.97 × 10^−31
  log2 (TD/Ctrl) TXNIP: −1.9141
Qvalue 2.98 × 10^−32
  log2 (TD/Ctrl) GLA: 1.68
Qvalue 3.01 × 10^−4
  log2 (TD/Ctrl) VAV1: 1.198
Qvalue 3.01 × 10^−9
  log2 (TD/Ctrl) RGS2: 1.337
Qvalue 3.01 × 10^−13
  log2 (TD/Ctrl) NREP: −1.339
Qvalue 3.15 × 10^−7
  log2 (TD/Ctrl) B3GAT1: 1.485
  log2 (TD/Ctrl) OLFM2: 1.732
Qvalue 3.17 × 10^−4
  log2 (TD/Ctrl) IL15RA: 1.677
Qvalue 3.27 × 10^−6
  log2 (TD/Ctrl) TNFRSF9: 1.903
Qvalue 3.31 × 10^−6
  log2 (TD/Ctrl) RASD1: 2.273
Qvalue 3.35 × 10^−6
  log2 (TD/Ctrl) TSC22D3: 1.67
Qvalue 3.37 × 10^−6
  log2 (TD/Ctrl) MSANTD3-TMEFF1: 1.009
Qvalue 3.39 × 10^−5
  log2 (TD/Ctrl) SKIDA1: −1.407
Qvalue 3.44 × 10^−6
  log2 (TD/Ctrl) USH1C: 2.547
Qvalue 3.45 × 10^−5
  log2 (TD/Ctrl) TMEM231: 1.1218
Qvalue 3.45 × 10^−9
  log2 (TD/Ctrl) COL12A1: 1.157
Qvalue 3.50 × 10^−4
  log2 (TD/Ctrl) BEGAIN: 1.974
Qvalue 3.51 × 10^−4
  log2 (TD/Ctrl) PHLDA2: 1.79
Qvalue 3.52 × 10^−9
  log2 (TD/Ctrl) PCDH7: −1.185
Qvalue 3.54 × 10^−4
  log2 (TD/Ctrl) ULBP2: 1.312
Qvalue 3.56 × 10^−4
  log2 (TD/Ctrl) PHF21B: 1.711
Qvalue 3.59 × 10^−15
  log2 (TD/Ctrl) JUN: 1.216
Qvalue 3.61 × 10^−6
  log2 (TD/Ctrl) PIM1: 1.177
Qvalue 3.63 × 10^−4
  log2 (TD/Ctrl) CSGALNACT1: 2.392
Qvalue 3.74 × 10^−4
  log2 (TD/Ctrl) MN1: 1.348
Qvalue 3.77 × 10^−12
  log2 (TD/Ctrl) ATF3: 2.527
Qvalue 3.78 × 10^−13
  log2 (TD/Ctrl) CASP9: 1.439
Qvalue 3.88 × 10^−22
  log2 (TD/Ctrl) C11orf96: 4.461
Qvalue 3.94 × 10^−5
  log2 (TD/Ctrl) FHL3: 1.045
Qvalue 4.00 × 10^−5
  log2 (TD/Ctrl) MRC2: 1.244
Qvalue 4.00 × 10^−6
  log2 (TD/Ctrl) SH2D3C: 2.239
